How the values were obtained:
[1] = target: Tyrosine-protein kinase Fyn (Homo sapiens) (UniProt P06241); details: Compound concentration 1000.0 nM
[2] = target: Ribosomal protein S6 kinase alpha-2 (Homo sapiens) (UniProt Q15349); details: Compound concentration 1000.0 nM
[3] = target: Tyrosine-protein kinase SYK (Homo sapiens) (UniProt P43405); details: Compound concentration 1000.0 nM
[4] = target: Peripheral plasma membrane protein CASK (Homo sapiens) (UniProt O14936); details: Compound concentration 1000.0 nM
[5] = target: Ribosomal protein S6 kinase alpha-4 (Homo sapiens) (UniProt O75676); details: Compound concentration 1000.0 nM
[6] = target: Dual specificity mitogen-activated protein kinase kinase 7 (Homo sapiens) (UniProt O14733); details: Compound concentration 1000.0 nM
[7] = tested on: Phosphatidylinositol 4,5-bisphosphate 3-kinase catalytic subunit alpha isoform (Homo sapiens), P42336 [E542K]; details: Compound concentration 1000.0 nM
[8] = target: Serine/threonine-protein kinase Nek7 (Homo sapiens) (UniProt Q8TDX7); details: Compound concentration 1000.0 nM
[9] = target: Rhodopsin kinase GRK1 (Homo sapiens) (UniProt Q15835); details: Compound concentration 1000.0 nM
[10] = target: Serine/threonine-protein kinase BRSK1 (Homo sapiens) (UniProt Q8TDC3); details: Compound concentration 1000.0 nM
[11] = target: Mitogen-activated protein kinase kinase kinase 13 (Homo sapiens) (UniProt O43283); details: Compound concentration 1000.0 nM
[12] = target: Tyrosine-protein kinase receptor UFO (Homo sapiens) (UniProt P30530); details: Compound concentration 1000.0 nM
[13] = tested on: ALK tyrosine kinase receptor (Homo sapiens), Q9UM73 [C1156Y]; details: Compound concentration 1000.0 nM
[14] = target: Serine/threonine-protein kinase SIK2 (Homo sapiens) (UniProt Q9H0K1); details: Compound concentration 1000.0 nM
[15] = target: Ephrin type-A receptor 7 (Homo sapiens) (UniProt Q15375); details: Compound concentration 1000.0 nM
[16] = target: Serine/threonine-protein kinase PAK 6 (Homo sapiens) (UniProt Q9NQU5); details: Compound concentration 1000.0 nM
[17] = target: Casein kinase II subunit alpha' (Homo sapiens) (UniProt P19784); details: Compound concentration 1000.0 nM
[18] = target: Mitogen-activated protein kinase kinase kinase 19 (Homo sapiens) (UniProt Q56UN5); details: Compound concentration 1000.0 nM
[19] = target: Serine/threonine-protein kinase Nek5 (Homo sapiens) (UniProt Q6P3R8); details: Compound concentration 1000.0 nM
[20] = target: Ephrin type-B receptor 6 (Homo sapiens) (UniProt O15197); details: Compound concentration 1000.0 nM
[21] = target: Cyclin-dependent kinase 13 (Homo sapiens) (UniProt Q14004); details: Compound concentration 1000.0 nM
[22] = target: Receptor-interacting serine/threonine-protein kinase 4 (Homo sapiens) (UniProt P57078); details: Compound concentration 1000.0 nM
[23] = target: Inhibitor of nuclear factor kappa-B kinase subunit alpha (Homo sapiens) (UniProt O15111); details: Compound concentration 1000.0 nM
[24] = target: Serine/threonine-protein kinase DCLK3 (Homo sapiens) (UniProt Q9C098); details: Compound concentration 1000.0 nM
[25] = target: Mitogen-activated protein kinase kinase kinase 14 (Homo sapiens) (UniProt Q99558); details: Compound concentration 1000.0 nM
[26] = tested on: Receptor-type tyrosine-protein kinase FLT3 (Homo sapiens), P36888 [D835H]; details: Compound concentration 1000.0 nM
[27] = target: T1, Alpha-2A adrenergic receptor (Homo sapiens) (UniProt P08913); details: Compound concentration 10.0 uM
T1 sequence (whole entry): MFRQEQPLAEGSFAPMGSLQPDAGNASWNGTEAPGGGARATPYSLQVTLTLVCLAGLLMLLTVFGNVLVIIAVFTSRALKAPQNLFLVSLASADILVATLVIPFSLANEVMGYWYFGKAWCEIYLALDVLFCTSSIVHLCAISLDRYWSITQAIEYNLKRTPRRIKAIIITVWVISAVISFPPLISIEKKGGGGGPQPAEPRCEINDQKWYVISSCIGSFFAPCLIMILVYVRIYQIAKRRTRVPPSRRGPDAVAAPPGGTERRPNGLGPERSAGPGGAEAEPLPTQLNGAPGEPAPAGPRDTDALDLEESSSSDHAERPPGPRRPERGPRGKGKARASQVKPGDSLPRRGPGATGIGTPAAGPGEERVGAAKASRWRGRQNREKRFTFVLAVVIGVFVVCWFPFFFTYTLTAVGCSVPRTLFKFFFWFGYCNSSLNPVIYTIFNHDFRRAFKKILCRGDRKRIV

[28] = target: Ribosomal protein S6 kinase alpha-3 (Homo sapiens) (UniProt P51812); details: Compound concentration 1000.0 nM
[29] = target: Macrophage-stimulating protein receptor (Homo sapiens) (UniProt Q04912); details: Compound concentration 1000.0 nM
[30] = target: Serine/threonine-protein kinase 32B (Homo sapiens) (UniProt Q9NY57); details: Compound concentration 1000.0 nM
[31] = tested on: Phosphatidylinositol 4,5-bisphosphate 3-kinase catalytic subunit alpha isoform (Homo sapiens), P42336 [H1047L]; details: Compound concentration 1000.0 nM
[32] = target: Serine/threonine-protein kinase Sgk1 (Homo sapiens) (UniProt O00141); details: Compound concentration 1000.0 nM
[33] = target: 5'-AMP-activated protein kinase catalytic subunit alpha-2 (Homo sapiens) (UniProt P54646); details: Compound concentration 1000.0 nM
[34] = target: Dual specificity mitogen-activated protein kinase kinase 4 (Homo sapiens) (UniProt P45985); details: Compound concentration 1000.0 nM
[35] = target: Homeodomain-interacting protein kinase 4 (Homo sapiens) (UniProt Q8NE63); details: Compound concentration 1000.0 nM
[36] = target: Dual specificity testis-specific protein kinase 1 (Homo sapiens) (UniProt Q15569); details: Compound concentration 1000.0 nM
[37] = tested on: Mast/stem cell growth factor receptor Kit (Homo sapiens), P10721 [V559D,V654A]; details: Compound concentration 1000.0 nM
[38] = target: Serine/threonine-protein kinase mTOR (Homo sapiens) (UniProt P42345); details: Compound concentration 1000.0 nM

Sequence of Serine/threonine-protein kinase Nek5 (Homo sapiens) (Q6P3R8 whole entry): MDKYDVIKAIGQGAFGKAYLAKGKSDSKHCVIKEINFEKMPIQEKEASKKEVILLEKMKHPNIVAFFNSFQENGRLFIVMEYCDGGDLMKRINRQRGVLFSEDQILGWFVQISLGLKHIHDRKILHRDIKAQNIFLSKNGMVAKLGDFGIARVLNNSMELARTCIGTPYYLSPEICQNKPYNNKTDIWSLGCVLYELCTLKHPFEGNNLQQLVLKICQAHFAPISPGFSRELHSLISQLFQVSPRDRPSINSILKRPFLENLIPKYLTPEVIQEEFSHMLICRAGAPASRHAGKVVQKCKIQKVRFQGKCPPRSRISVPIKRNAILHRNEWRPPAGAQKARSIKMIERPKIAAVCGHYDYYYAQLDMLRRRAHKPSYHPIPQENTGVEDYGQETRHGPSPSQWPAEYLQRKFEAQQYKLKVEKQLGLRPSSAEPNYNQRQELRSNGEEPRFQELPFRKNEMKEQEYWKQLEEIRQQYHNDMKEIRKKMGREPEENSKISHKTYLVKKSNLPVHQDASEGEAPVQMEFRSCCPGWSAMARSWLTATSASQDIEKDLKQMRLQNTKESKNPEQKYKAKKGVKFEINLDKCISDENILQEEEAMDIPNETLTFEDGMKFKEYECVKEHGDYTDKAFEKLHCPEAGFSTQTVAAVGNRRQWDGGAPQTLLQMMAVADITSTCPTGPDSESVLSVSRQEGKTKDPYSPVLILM
Sequence of Peripheral plasma membrane protein CASK (Homo sapiens) (O14936 whole entry): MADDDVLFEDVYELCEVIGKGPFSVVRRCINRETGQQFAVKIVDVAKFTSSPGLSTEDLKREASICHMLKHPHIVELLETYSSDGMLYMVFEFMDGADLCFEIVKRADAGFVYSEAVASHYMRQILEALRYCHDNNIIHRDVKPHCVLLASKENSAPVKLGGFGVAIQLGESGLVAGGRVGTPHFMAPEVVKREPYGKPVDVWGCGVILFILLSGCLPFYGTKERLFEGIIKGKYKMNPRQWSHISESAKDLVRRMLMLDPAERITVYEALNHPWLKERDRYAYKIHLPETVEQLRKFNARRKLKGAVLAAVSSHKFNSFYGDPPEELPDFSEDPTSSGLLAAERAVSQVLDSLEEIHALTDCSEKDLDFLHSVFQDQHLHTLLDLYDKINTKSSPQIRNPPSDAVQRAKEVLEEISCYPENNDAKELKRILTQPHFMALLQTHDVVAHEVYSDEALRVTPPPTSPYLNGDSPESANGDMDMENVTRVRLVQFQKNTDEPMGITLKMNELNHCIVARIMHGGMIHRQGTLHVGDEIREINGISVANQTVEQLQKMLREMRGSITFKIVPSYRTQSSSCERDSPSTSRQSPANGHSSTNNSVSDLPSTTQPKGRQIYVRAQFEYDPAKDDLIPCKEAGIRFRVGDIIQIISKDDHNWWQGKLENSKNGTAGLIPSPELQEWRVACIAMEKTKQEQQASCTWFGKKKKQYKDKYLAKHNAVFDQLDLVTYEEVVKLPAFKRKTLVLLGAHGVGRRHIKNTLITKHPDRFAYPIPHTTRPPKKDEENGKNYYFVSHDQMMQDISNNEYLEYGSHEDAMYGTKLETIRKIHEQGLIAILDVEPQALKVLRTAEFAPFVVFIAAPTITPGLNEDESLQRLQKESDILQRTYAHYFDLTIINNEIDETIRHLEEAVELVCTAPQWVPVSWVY
Sequence of ALK tyrosine kinase receptor (Homo sapiens), Q9UM73 [C1156Y] (Q9UM73 whole entry C1156Y, looked up): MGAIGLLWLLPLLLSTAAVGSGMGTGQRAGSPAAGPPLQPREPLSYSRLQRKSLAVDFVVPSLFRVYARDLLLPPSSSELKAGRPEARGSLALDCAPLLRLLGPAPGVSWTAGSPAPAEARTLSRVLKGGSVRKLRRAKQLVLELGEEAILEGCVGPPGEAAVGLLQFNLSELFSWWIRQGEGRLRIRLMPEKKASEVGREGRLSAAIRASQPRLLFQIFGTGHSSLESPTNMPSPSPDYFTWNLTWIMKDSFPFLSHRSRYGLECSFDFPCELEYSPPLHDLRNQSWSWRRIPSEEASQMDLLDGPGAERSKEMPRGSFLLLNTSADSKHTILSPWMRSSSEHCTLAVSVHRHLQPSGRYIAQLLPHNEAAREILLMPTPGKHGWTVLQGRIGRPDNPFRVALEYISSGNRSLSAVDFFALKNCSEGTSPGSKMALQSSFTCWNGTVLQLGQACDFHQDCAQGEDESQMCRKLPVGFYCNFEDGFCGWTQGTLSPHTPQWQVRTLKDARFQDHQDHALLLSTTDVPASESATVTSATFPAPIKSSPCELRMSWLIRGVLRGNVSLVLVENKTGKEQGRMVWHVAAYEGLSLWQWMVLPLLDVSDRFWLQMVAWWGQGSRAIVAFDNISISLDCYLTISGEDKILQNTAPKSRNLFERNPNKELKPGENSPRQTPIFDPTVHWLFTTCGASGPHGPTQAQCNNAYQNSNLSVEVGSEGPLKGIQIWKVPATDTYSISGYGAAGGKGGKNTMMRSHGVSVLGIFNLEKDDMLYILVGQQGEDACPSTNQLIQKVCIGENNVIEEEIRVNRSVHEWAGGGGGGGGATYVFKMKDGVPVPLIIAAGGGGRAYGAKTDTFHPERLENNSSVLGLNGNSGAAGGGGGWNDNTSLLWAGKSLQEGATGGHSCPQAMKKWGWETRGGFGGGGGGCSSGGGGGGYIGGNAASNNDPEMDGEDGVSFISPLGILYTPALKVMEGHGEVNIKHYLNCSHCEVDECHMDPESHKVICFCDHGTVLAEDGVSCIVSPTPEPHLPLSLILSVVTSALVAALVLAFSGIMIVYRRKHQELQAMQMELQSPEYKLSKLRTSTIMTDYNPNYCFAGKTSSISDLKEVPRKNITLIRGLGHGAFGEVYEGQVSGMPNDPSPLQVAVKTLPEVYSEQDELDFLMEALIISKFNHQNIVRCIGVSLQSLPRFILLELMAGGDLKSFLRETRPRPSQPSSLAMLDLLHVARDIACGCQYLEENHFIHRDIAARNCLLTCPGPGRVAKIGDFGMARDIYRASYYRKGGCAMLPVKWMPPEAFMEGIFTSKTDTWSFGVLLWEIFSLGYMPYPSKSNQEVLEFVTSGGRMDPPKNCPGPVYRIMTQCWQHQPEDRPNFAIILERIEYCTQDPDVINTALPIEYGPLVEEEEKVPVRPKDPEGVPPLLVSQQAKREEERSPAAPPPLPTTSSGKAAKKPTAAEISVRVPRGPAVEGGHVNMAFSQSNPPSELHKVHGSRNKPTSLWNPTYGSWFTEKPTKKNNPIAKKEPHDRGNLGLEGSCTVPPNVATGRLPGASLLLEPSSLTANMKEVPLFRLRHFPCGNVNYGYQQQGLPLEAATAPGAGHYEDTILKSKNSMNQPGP
Sequence of Dual specificity mitogen-activated protein kinase kinase 4 (Homo sapiens) (P45985 whole entry): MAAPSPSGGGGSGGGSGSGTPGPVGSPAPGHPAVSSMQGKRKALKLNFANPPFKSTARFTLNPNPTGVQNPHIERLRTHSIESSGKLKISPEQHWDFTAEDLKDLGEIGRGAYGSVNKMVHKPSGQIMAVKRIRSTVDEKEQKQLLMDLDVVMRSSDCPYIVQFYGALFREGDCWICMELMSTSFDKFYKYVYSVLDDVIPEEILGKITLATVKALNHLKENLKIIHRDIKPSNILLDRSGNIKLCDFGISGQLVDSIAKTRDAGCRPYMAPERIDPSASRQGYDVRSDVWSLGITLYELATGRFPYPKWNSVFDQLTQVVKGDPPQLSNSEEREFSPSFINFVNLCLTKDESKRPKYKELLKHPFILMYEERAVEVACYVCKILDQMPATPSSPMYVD
Sequence of Dual specificity testis-specific protein kinase 1 (Homo sapiens) (Q15569 whole entry, looked up): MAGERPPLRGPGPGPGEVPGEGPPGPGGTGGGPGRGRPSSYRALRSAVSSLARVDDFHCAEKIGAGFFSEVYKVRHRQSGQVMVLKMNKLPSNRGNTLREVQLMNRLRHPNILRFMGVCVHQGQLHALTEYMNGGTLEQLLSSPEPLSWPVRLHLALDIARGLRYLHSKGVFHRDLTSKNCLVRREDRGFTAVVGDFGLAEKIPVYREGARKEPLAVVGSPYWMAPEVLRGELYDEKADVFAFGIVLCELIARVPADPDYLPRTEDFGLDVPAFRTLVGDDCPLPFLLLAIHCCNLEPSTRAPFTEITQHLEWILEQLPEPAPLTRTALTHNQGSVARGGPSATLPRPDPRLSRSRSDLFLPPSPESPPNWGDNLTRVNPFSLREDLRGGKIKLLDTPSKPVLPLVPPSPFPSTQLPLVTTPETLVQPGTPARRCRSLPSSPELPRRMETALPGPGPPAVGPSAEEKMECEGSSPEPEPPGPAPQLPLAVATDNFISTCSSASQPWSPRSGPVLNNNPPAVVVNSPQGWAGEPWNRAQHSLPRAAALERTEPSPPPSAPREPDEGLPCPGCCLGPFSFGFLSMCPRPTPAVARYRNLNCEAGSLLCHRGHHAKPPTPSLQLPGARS
Sequence of Rhodopsin kinase GRK1 (Homo sapiens) (Q15835 whole entry): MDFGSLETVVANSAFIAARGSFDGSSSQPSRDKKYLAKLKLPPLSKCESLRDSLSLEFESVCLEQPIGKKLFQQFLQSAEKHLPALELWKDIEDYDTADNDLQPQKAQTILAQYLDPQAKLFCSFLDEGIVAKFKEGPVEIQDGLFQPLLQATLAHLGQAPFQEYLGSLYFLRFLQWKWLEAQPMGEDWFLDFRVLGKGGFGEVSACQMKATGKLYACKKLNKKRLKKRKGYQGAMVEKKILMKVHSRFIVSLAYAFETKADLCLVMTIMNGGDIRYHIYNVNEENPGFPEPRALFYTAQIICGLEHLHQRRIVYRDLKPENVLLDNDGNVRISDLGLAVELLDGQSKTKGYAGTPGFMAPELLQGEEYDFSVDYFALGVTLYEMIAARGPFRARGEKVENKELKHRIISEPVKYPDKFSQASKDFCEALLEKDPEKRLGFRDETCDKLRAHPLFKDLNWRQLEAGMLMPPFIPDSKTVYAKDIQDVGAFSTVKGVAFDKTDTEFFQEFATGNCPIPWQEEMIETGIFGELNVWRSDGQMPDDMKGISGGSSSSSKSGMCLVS

O=C(Nc1ccc(Oc2ccc(F)cc2)cc1)N1CCc2ncccc2[C@H]1c1ccc(F)cc1 [BAY-897]
inactive: residual activity [1] 89% | residual activity [2] 94% | residual activity [3] 91% | residual activity [4] 100% | residual activity [5] 73% | residual activity [6] 100% | residual activity [7] 71% | residual activity [8] 82% | residual activity [9] 91% | residual activity [10] 100% | residual activity [11] 98% | residual activity [12] 77% | residual activity [13] 93% | residual activity [14] 100% | residual activity [15] 90% | residual activity [16] 100% | residual activity [17] 100% | residual activity [18] 88% | residual activity [19] 96% | residual activity [20] 70% | residual activity [21] 100% | residual activity [22] 84% | residual activity [23] 100% | residual activity [24] 93% | residual activity [25] 61% | residual activity [26] 86% | inhibition [27] 7.16% | residual activity [28] 97% | residual activity [29] 98% | residual activity [30] 72% | residual activity [31] 85% | residual activity [32] 95% | residual activity [33] 51% | residual activity [34] 86% | residual activity [35] 96% | residual activity [36] 100% | residual activity [37] 90% | residual activity [38] 100%

O=C(Nc1cnc(Oc2ccc(F)cc2)nc1)N1CCc2ncccc2[C@@H]1c1ccc(F)cc1 [BAY-899]
inactive: residual activity [1] 100% | residual activity [2] 79% | residual activity [3] 84% | residual activity [4] 94% | residual activity [5] 89% | residual activity [6] 95% | residual activity [7] 81% | residual activity [8] 84% | residual activity [9] 91% | residual activity [10] 87% | residual activity [11] 88% | residual activity [12] 76% | residual activity [13] 90% | residual activity [14] 89% | residual activity [15] 88% | residual activity [16] 100% | residual activity [17] 100% | residual activity [18] 81% | residual activity [19] 90% | residual activity [20] 100% | residual activity [21] 100% | residual activity [22] 100% | residual activity [23] 100% | residual activity [24] 96% | residual activity [25] 100% | residual activity [26] 100% | inhibition [27] 9.77% | residual activity [28] 91% | residual activity [29] 100% | residual activity [30] 87% | residual activity [31] 92% | residual activity [32] 75% | residual activity [33] 79% | residual activity [34] 100% | residual activity [35] 100% | residual activity [36] 91% | residual activity [37] 84% | residual activity [38] 100%

Source: ChEMBL document CHEMBL4507317, “Data for DCP probe BAY-899” (2021)
